Columns and labels:
Experiment in all cases: NCI one-dose SRB growth inhibition
Format in all cases: cell-based
IGROV1 = settings: Homo sapiens, IGROV-1, Ovarian Cancer, 48 h, read-out: GI% IGROV1
Outline: (§1)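 Cells from a panel spanning colon, ovarian, prostate, leukemia, melanoma, CNS, renal, breast and lung cancers are treated with compound for 48 h. Growth and viability are then quantified by the SRB assay.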

SNB-19 = settings: Homo sapiens, CNS Cancer, 48 h, read-out: GI% SNB-19
Outline: as §1

M14 = settings: Homo sapiens, M14, 48 h, Melanoma, read-out: GI% M14
Outline: as §1

K-562 = settings: Homo sapiens, K562, 48 h, Leukemia, read-out: GI% K-562
Outline: as §1

SF-539 = settings: Homo sapiens, CNS Cancer, 48 h, read-out: GI% SF-539
Outline: as §1

HCT-116 = settings: Homo sapiens, HCT-116, 48 h, Colon Cancer, read-out: GI% HCT-116
Outline: as §1

T-47D = settings: Homo sapiens, T47D, 48 h, Breast Cancer, read-out: GI% T-47D
Outline: as §1

U251 = settings: Homo sapiens, U-251, CNS Cancer, 48 h, read-out: GI% U251
Outline: as §1

SN12C = settings: Homo sapiens, Renal Cancer, 48 h, read-out: GI% SN12C
Outline: as §1

MDA-MB-231 = settings: Homo sapiens, Breast Cancer, 48 h, read-out: GI% MDA-MB-231
Outline: as §1

HCC-2998 = settings: Homo sapiens, Colon Cancer, 48 h, read-out: GI% HCC-2998
Outline: as §1

CCRF-CEM = settings: Homo sapiens, Leukemia, 48 h, read-out: GI% CCRF-CEM
Outline: as §1

MDA-MB-468 = settings: Homo sapiens, Breast Cancer, 48 h, read-out: GI% MDA-MB-468
Outline: as §1

RXF 393 = settings: Homo sapiens, Renal Cancer, 48 h, read-out: GI% RXF 393
Outline: as §1

OVCAR-4 = settings: Homo sapiens, Ovarian Cancer, 48 h, read-out: GI% OVCAR-4
Outline: as §1

OVCAR-8 = settings: Homo sapiens, Ovarian Cancer, 48 h, read-out: GI% OVCAR-8
Outline: as §1

SF-268 = settings: Homo sapiens, CNS Cancer, 48 h, read-out: GI% SF-268
Outline: as §1

TK-10 = settings: Homo sapiens, Renal Cancer, 48 h, read-out: GI% TK-10
Outline: as §1

A549/ATCC = settings: Homo sapiens, A549, 48 h, Non-Small Cell Lung Cancer, read-out: GI% A549/ATCC
Outline: as §1

BT-549 = settings: Homo sapiens, Breast Cancer, 48 h, read-out: GI% BT-549
Outline: as §1

PC-3 = settings: Homo sapiens, PC-3, 48 h, Prostate, read-out: GI% PC-3
Outline: as §1

SNB-75 = settings: Homo sapiens, CNS Cancer, 48 h, read-out: GI% SNB-75
Outline: as §1

HOP-62 = settings: Homo sapiens, Non-Small Cell Lung Cancer, 48 h, read-out: GI% HOP-62
Outline: as §1

KM12 = settings: Homo sapiens, Colon Cancer, 48 h, read-out: GI% KM12
Outline: as §1

SK-MEL-28 = settings: Homo sapiens, Melanoma, 48 h, read-out: GI% SK-MEL-28
Outline: as §1

MALME-3M = settings: Homo sapiens, Melanoma, 48 h, read-out: GI% MALME-3M
Outline: as §1

MDA-MB-435 = settings: Homo sapiens, Melanoma, 48 h, read-out: GI% MDA-MB-435
Outline: as §1

Row | Compound | inhibition at 10 µM (IGROV1) [%] | inhibition at 10 µM (SNB-19) [%] | inhibition at 10 µM (M14) [%] | inhibition at 10 µM (K-562) [%] | inhibition at 10 µM (SF-539) [%] | inhibition at 10 µM (HCT-116) [%] | inhibition at 10 µM (T-47D) [%] | inhibition at 10 µM (U251) [%] | inhibition at 10 µM (SN12C) [%] | inhibition at 10 µM (MDA-MB-231) [%] | inhibition at 10 µM (HCC-2998) [%] | inhibition at 10 µM (CCRF-CEM) [%] | inhibition at 10 µM (MDA-MB-468) [%] | inhibition at 10 µM (RXF 393) [%] | inhibition at 10 µM (OVCAR-4) [%] | inhibition at 10 µM (OVCAR-8) [%] | inhibition at 10 µM (SF-268) [%] | inhibition at 10 µM (TK-10) [%] | inhibition at 10 µM (A549/ATCC) [%] | inhibition at 10 µM (BT-549) [%] | further results
1 | Cc1nc(-c2ccc(Cl)cc2)ccc1NC(=O)Nc1ccc2c(c1)OCO2 [Compound 5g, 1-(Benzo[d][1,3]dioxol-5-yl)-3-(6-(4-chlorophenyl)-2-methylpyridin-3-yl)urea] | < 10 | < 10 | 29 | 21 | < 10 | < 10 | < 10 | < 10 | < 10 | < 10 | < 10 | < 10 | < 10 | < 10 | < 10 | < 10 | < 10 | < 10 | 32 | < 10 | inhibition at 10 µM (PC-3): < 10%; inhibition at 10 µM (SNB-75): < 10%; inhibition at 10 µM (HOP-62): < 10%; inhibition at 10 µM (KM12): < 10%; inhibition at 10 µM (SK-MEL-28): < 10%; inhibition at 10 µM (MALME-3M): < 10%; inhibition at 10 µM (MDA-MB-435): < 10%
2 | Cc1nc(-c2cccs2)ccc1NC(=O)Nc1ccc(F)cc1 [Compound 5h, 1-(4-Fluorophenyl)-3-(2-methyl-6-(thiophen-2-yl)pyridin-3-yl)urea] | < 10 | < 10 | < 10 | 22 | < 10 | 22 | 15 | < 10 | < 10 | < 10 | 14 | 10 | 16 | < 10 | < 10 | < 10 | < 10 | < 10 | 32 | < 10 | inhibition at 10 µM (PC-3): 19%; inhibition at 10 µM (SNB-75): < 10%; inhibition at 10 µM (HOP-62): < 10%; inhibition at 10 µM (KM12): 18%; inhibition at 10 µM (SK-MEL-28): < 10%; inhibition at 10 µM (MALME-3M): < 10%; inhibition at 10 µM (MDA-MB-435): < 10%
3 | Cc1nc(-c2cccs2)ccc1NC(=O)Nc1ccc(Cl)cc1 [Compound 5i, 1-(4-Chlorophenyl)-3-(2-methyl-6-(thiophen-2-yl)pyridin-3-yl)urea] | < 10 | < 10 | < 10 | < 10 | < 10 | < 10 | 13 | < 10 | < 10 | < 10 | < 10 | < 10 | 17 | < 10 | < 10 | < 10 | < 10 | < 10 | 29 | < 10 | inhibition at 10 µM (PC-3): < 10%; inhibition at 10 µM (SNB-75): < 10%; inhibition at 10 µM (HOP-62): < 10%; inhibition at 10 µM (KM12): < 10%; inhibition at 10 µM (SK-MEL-28): < 10%; inhibition at 10 µM (MALME-3M): < 10%; inhibition at 10 µM (MDA-MB-435): < 10%
4 | CCOC(=O)c1ccc(NC(=O)Nc2ccc(-c3cccs3)nc2C)cc1 [Compound 5j, Ethyl 4-(3-(2-methyl-6-(thiophen-2-yl)pyridin-3-yl)ureido)benzoate] | < 10 | < 10 | 38 | 42 | < 10 | 27 | < 10 | 21 | < 10 | < 10 | < 10 | 50 | 13 | < 10 | < 10 | < 10 | < 10 | < 10 | 35 | 15 | inhibition at 10 µM (PC-3): 52%; inhibition at 10 µM (SNB-75): < 10%; inhibition at 10 µM (HOP-62): < 10%; inhibition at 10 µM (KM12): 18%; inhibition at 10 µM (SK-MEL-28): < 10%; inhibition at 10 µM (MALME-3M): < 10%; inhibition at 10 µM (MDA-MB-435): < 10%

Reference: article PMC6366416, “Synthesis and in vitro anticancer activity of certain novel 1-(2-methyl-6-arylpyridin-3-yl)-3-phenylureas as apoptosis-inducing agents” (Journal of Enzyme Inhibition and Medicinal Chemistry, 2019)
